Test results from ChEMBL document CHEMBL1201862, “PubChem BioAssay data set” (2004).
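Method: 48-hour compound exposure of cells in 96-well plates, five concentrations, linear interpolation of endpoints. Here, GI50 denotes the concentration required for 50% inhibition of growth.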 Activity calls are given as the source filed them. Cut-off read from the data, not from the text of the source: active = GI50 up to about 1.1 µM and inactive = higher.

Tests used:
Test in all cases: NCI anticancer screen, dose series, 48 h
786-0 = tested on: 786-0
A498 = tested on: A498
A549 = tested on: A549
ACHN = tested on: ACHN
CAKI-1 = tested on: CAKI-1
CCRF-CEM = tested on: CCRF-CEM
COLO 205 = tested on: COLO 205
DLD-1 = tested on: DLD-1
DMS-114 = tested on: DMS-114
DMS-273 = tested on: DMS-273
EKVX = tested on: EKVX
HCC 2998 = tested on: HCC 2998
HCT-116 = tested on: HCT-116
HCT-15 = tested on: HCT-15
HL-60 = tested on: HL-60
HOP-62 = tested on: HOP-62
HT-29 = tested on: HT-29
IGROV-1 = tested on: IGROV-1
K562 = tested on: K562
KM-20L2 = tested on: KM-20L2
KM12 = tested on: KM12
LOX IMVI = tested on: LOX IMVI
LXFL 529 = tested on: LXFL 529
M14 = tested on: M14
M19-MEL = tested on: M19-MEL
MOLT-4 = tested on: MOLT-4
Malme-3M = tested on: Malme-3M
NCI-H460 = tested on: NCI-H460
OVCAR-3 = tested on: OVCAR-3
OVCAR-4 = tested on: OVCAR-4
OVCAR-5 = tested on: OVCAR-5
OVCAR-8 = tested on: OVCAR-8
RPMI-8226 = tested on: RPMI-8226
RXF 631 = tested on: RXF 631
SF-268 = tested on: SF-268
SF-295 = tested on: SF-295
SF-539 = tested on: SF-539
SK-MEL-28 = tested on: SK-MEL-28
SK-MEL-2 = tested on: SK-MEL-2
SK-MEL-5 = tested on: SK-MEL-5
SK-OV-3 = tested on: SK-OV-3
SN12C = tested on: SN12C
SNB-19 = tested on: SNB-19
SNB-75 = tested on: SNB-75
SNB-78 = tested on: SNB-78
SW-620 = tested on: SW-620
TK-10 = tested on: TK-10
U-251 = tested on: U-251
UACC-257 = tested on: UACC-257
UACC-62 = tested on: UACC-62
UO-31 = tested on: UO-31
XF498 = tested on: XF498
SR = tested on: SR

## C=CCc1cc(OC)c2c(c1)C(OC)CC(c1ccc(OC)c(OC)c1)O2 (stereo not drawn)
786-0
  GI50: > 100 µM (inactive)
A498
  GI50: > 100 µM (inactive)
A549
  GI50: > 100 µM (inactive)
ACHN
  GI50: 71.9 µM (inactive)
CAKI-1
  GI50: 94.8 µM (inactive)
CCRF-CEM
  GI50: > 100 µM (inactive)
COLO 205
  GI50: > 100 µM (inactive)
DLD-1
  GI50: > 100 µM (inactive)
DMS-114
  GI50: 67.5 µM (inactive)
DMS-273
  GI50: > 100 µM (inactive)
EKVX
  GI50: > 100 µM (inactive)
HCC 2998
  GI50: > 100 µM (inactive)
HCT-116
  GI50: > 100 µM (inactive)
HCT-15
  GI50: 61.5 µM
HL-60
  GI50: 75 µM (inactive)
HOP-62
  GI50: > 100 µM (inactive)
HT-29
  GI50: > 100 µM (inactive)
IGROV-1
  GI50: > 100 µM (inactive)
K562
  GI50: 61.8 µM (inactive)
KM-20L2
  GI50: > 100 µM (inactive)
KM12
  GI50: > 100 µM (inactive)
LOX IMVI
  GI50: > 100 µM (inactive)
LXFL 529
  GI50: > 100 µM (inactive)
M14
  GI50: 78.2 µM (inactive)
M19-MEL
  GI50: > 100 µM (inactive)
MOLT-4
  GI50: 45.5 µM (inactive)
Malme-3M
  GI50: 55.1 µM (inactive)
NCI-H460
  GI50: > 100 µM (inactive)
OVCAR-3
  GI50: > 100 µM (inactive)
OVCAR-4
  GI50: > 100 µM (inactive)
OVCAR-5
  GI50: > 100 µM (inactive)
OVCAR-8
  GI50: > 100 µM (inactive)
RPMI-8226
  GI50: 38 µM (inactive)
RXF 631
  GI50: > 100 µM (inactive)
SF-268
  GI50: 73.8 µM (inactive)
SF-295
  GI50: > 100 µM (inactive)
SF-539
  GI50: > 100 µM (inactive)
SK-MEL-28
  GI50: > 100 µM (inactive)
SK-MEL-2
  GI50: > 100 µM (inactive)
SK-MEL-5
  GI50: > 100 µM (inactive)
SK-OV-3
  GI50: > 100 µM (inactive)
SN12C
  GI50: > 100 µM (inactive)
SNB-19
  GI50: > 100 µM (inactive)
SNB-75
  GI50: 54.8 µM (inactive)
SNB-78
  GI50: > 100 µM (inactive)
SW-620
  GI50: > 100 µM (inactive)
TK-10
  GI50: > 100 µM (inactive)
U-251
  GI50: > 100 µM (inactive)
UACC-257
  GI50: > 100 µM (inactive)
UACC-62
  GI50: > 100 µM (inactive)
UO-31
  GI50: 42.3 µM (inactive)
XF498
  GI50: > 100 µM (inactive)

## Oc1cc(-c2ccc[nH]2)nc2cc3c(cc12)OCO3
786-0
  GI50: 40.6 µM (inactive)
A498
  GI50: 18.6 µM (inactive)
A549
  GI50: 53.8 µM (inactive)
ACHN
  GI50: 88.1 µM (inactive)
CCRF-CEM
  GI50: 24.1 µM (inactive)
COLO 205
  GI50: 18.5 µM (inactive)
DLD-1
  GI50: 34.4 µM (inactive)
DMS-273
  GI50: 32.2 µM (inactive)
EKVX
  GI50: 55.3 µM (inactive)
HCC 2998
  GI50: 28.8 µM (inactive)
HCT-15
  GI50: 23.2 µM
HL-60
  GI50: 26.9 µM (inactive)
HOP-62
  GI50: 17.6 µM (inactive)
HT-29
  GI50: 29.8 µM (inactive)
IGROV-1
  GI50: 33.3 µM (inactive)
K562
  GI50: 17.1 µM (inactive)
LOX IMVI
  GI50: 64.1 µM (inactive)
LXFL 529
  GI50: 28.4 µM (inactive)
M14
  GI50: 32.2 µM (inactive)
M19-MEL
  GI50: 39 µM (inactive)
MOLT-4
  GI50: 39.7 µM (inactive)
Malme-3M
  GI50: 17.1 µM (inactive)
NCI-H460
  GI50: 25.2 µM (inactive)
OVCAR-4
  GI50: 21 µM (inactive)
OVCAR-8
  GI50: 46.7 µM (inactive)
RPMI-8226
  GI50: 43 µM (inactive)
RXF 631
  GI50: 47.5 µM (inactive)
SF-539
  GI50: 29.6 µM (inactive)
SK-MEL-28
  GI50: 65.2 µM (inactive)
SK-MEL-2
  GI50: 48.3 µM (inactive)
SN12C
  GI50: 49 µM (inactive)
SNB-19
  GI50: 37.7 µM (inactive)
SNB-75
  GI50: 13.8 µM (inactive)
SR
  GI50: 37.2 µM (inactive)
SW-620
  GI50: 21.6 µM (inactive)
TK-10
  GI50: 62.8 µM (inactive)
U-251
  GI50: 65.9 µM (inactive)
UACC-257
  GI50: 64.7 µM (inactive)
UACC-62
  GI50: 27 µM (inactive)
UO-31
  GI50: 56.5 µM (inactive)
XF498
  GI50: 21.1 µM (inactive)
